The results in this text go back to PubChem BioAssay (NCI).

Each structure is given as a SMILES string. Several values for one entry are separate records, joined by “and”; a condition that tells them apart may be missing. Equal entries are not always repeated.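 How tested: cells in 96-well plates exposed to compound for 48 hours at five concentrations. GI50 is the concentration that inhibits growth by half. TGI: total growth inhibition.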 Numbered stars: 1 amine (or outer) side, 2 acyl side, 3 side chain; on linkers, the order of the positions; unused ones are H or OH. Bridge positions count the residues as written; N and C are the ends. Square brackets hold non-standard residues; d marks the D form. Peptide text beside a SMILES is read from it. I, II: the chains in the order shown. Actinocin(1to9) = Cc1c2oc3c(C)ccc(C(=O)[*:2])c3nc-2c(C(=O)[*:1])c(N)c1=O; NMeY = CN[CH](Cc1ccc(O)cc1)C(=O)O; Sar = CNCC(=O)O

Some test systems named below: HOP-92 NSCLC; MOLT-4 leukemia; PC-3 prostate; MDA-MB-231 breast; HOP-62 NSCLC; HCT-116 colon; HCC-2998 colon; CAKI-1 renal; RXF 393 renal; HL-60(TB) leukemia.
Common to all, as to experiment: growth of human tumour cells (NCI), 48 h

As to `NC(Cc1ccccc1)c1nccs1` (stereo not given), the TGI in the experiment on HOP-92 NSCLC, in the experiment with MOLT-4 leukemia, in the experiment with PC-3 prostate, with MDA-MB-231 breast, with HOP-62 NSCLC and in the experiment with HCT-116 colon was more than 100 µM in each case. Also, the TGI with HCC-2998 colon and in the experiment with CAKI-1 renal was more than 100 µM in each case.
With `COC(=O)C1CCc2nnc(-c3ccccc3)n21` (stereo not given), the TGI in the experiment on HOP-92 NSCLC, with MOLT-4 leukemia, in the experiment with RXF 393 renal, in the experiment with HOP-62 NSCLC, with HCT-116 colon and with HCC-2998 colon was more than 100 µM each time. In addition, the TGI with CAKI-1 renal and in the experiment on HL-60(TB) leukemia was more than 100 µM throughout.
`COc1ccc2c(c1)CN1CCc3c(cc(OC)c(OC)c3OC)C1C2` (stereo not given): the TGI in the experiment on HOP-92 NSCLC, with MOLT-4 leukemia, in the experiment with RXF 393 renal, with HOP-62 NSCLC, in the experiment with HCT-116 colon and in the experiment with HCC-2998 colon was more than 100 µM in each case. The TGI with CAKI-1 renal and with HL-60(TB) leukemia was more than 100 µM each time.
For the molecule `CCC[CH2][Sn]1([CH2]CCC)[S]CC[N]1S(=O)(=O)c1ccc(C)cc1`, the GI50 in the experiment on HOP-92 NSCLC was 1.19 µM; with MOLT-4 leukemia it was 1.14 µM; in the experiment with HOP-62 NSCLC, 2.22 µM; in the experiment with HCT-116 colon, 1.42 µM; in the experiment on HCC-2998 colon it was 1.95 µM; in the experiment on CAKI-1 renal it was 0.675 µM. Moreover, in the experiment with HL-60(TB) leukemia, the GI50 was 0.581 µM. Moreover, the TGI in the experiment on HOP-92 NSCLC worked out at 2.46 µM; in the experiment with MOLT-4 leukemia, 4.04 µM; in the experiment with HOP-62 NSCLC, 3.83 µM; in the experiment on HCT-116 colon it was 2.81 µM; with HCC-2998 colon it was 3.44 µM; with CAKI-1 renal, 1.96 µM. Further, the TGI in the experiment with HL-60(TB) leukemia was determined as 2.73 µM.
As for `CNC(=O)CN(CC(=O)O)C(=O)NC`, the TGI with HOP-92 NSCLC, with MOLT-4 leukemia, with RXF 393 renal, in the experiment on HOP-62 NSCLC, in the experiment with HCC-2998 colon and with CAKI-1 renal was more than 100 µM throughout. The same molecule showed a TGI in the experiment with HL-60(TB) leukemia of more than 100 µM.
As for `C[C@H]1C=C2C(=O)O[C@H]3CC[C@@H](C1)[C@@]23O`, the TGI was 16.3 µM with HOP-92 NSCLC; more than 100 µM with MOLT-4 leukemia; 9.02 µM in the experiment with RXF 393 renal; 9.24 µM in the experiment with HCT-116 colon; 26.8 µM in the experiment on HCC-2998 colon; 14.8 µM in the experiment with CAKI-1 renal. Moreover, the TGI in the experiment with HL-60(TB) leukemia came out at 4.55 µM.
As for `CC[PH+](CC)CC.[Cl][Au]`, the GI50 with HOP-92 NSCLC was 1.28 µM; with MOLT-4 leukemia, 0.682 µM; in the experiment with RXF 393 renal it was 0.447 µM; in the experiment on HOP-62 NSCLC it was 19.4 µM; with HCT-116 colon, 1.84 µM; in the experiment with HCC-2998 colon, 6.78 µM. In addition, the GI50 in the experiment with CAKI-1 renal was 1.18 µM; with HL-60(TB) leukemia it was less than 0.0469 µM. The TGI worked out at 2.72 µM with HOP-92 NSCLC; 2.69 µM in the experiment with MOLT-4 leukemia; 1.66 µM in the experiment with RXF 393 renal; 33.7 µM in the experiment with HOP-62 NSCLC; 3.59 µM with HCT-116 colon; 12 µM with HCC-2998 colon. For the same molecule, the TGI with CAKI-1 renal was determined as 2.64 µM; with HL-60(TB) leukemia, 0.278 µM.
For the molecule `COc1cc(/C=N/N=C(\N)NO)c([N+](=O)[O-])cc1OC`, the TGI in the experiment on HOP-92 NSCLC is 91.7 µM; in the experiment on MOLT-4 leukemia, more than 100 µM; in the experiment on RXF 393 renal, 65.2 µM; in the experiment on HOP-62 NSCLC it was more than 100 µM; in the experiment with HCT-116 colon, 75.1 µM; with HCC-2998 colon, more than 100 µM. The TGI in the experiment with CAKI-1 renal worked out at 76.2 µM; with HL-60(TB) leukemia, 56 µM.
`CO[C@@]1(c2ccccc2)O[C@H]2OCCC2[C@H]1c1ccc(Cl)cc1` (stereo not given in full): the TGI with MOLT-4 leukemia was 92.7 µM; in the experiment on RXF 393 renal, 57.4 µM; with HOP-62 NSCLC it was more than 100 µM; with HCT-116 colon, more than 100 µM; in the experiment with HCC-2998 colon, more than 100 µM; in the experiment with CAKI-1 renal, more than 100 µM.
In the case of `CC1=CCCC2C(C=O)(C1)CC(C)C2(CO)CC/C(=C/CO)CO` (stereo not given), the TGI with HOP-92 NSCLC is 87.6 µM; in the experiment on MOLT-4 leukemia, more than 100 µM; in the experiment with RXF 393 renal, more than 100 µM; in the experiment with HCT-116 colon it was more than 100 µM; in the experiment on HCC-2998 colon it was more than 100 µM; in the experiment on CAKI-1 renal it was more than 100 µM.
On to `CCOC(=O)C1=C(C)NC(c2ccco2)=C(C#N)C1c1cccc([N+](=O)[O-])c1` (stereo not given), for which the GI50 in the experiment with MOLT-4 leukemia is 0.0445 µM; with MDA-MB-231 breast, 0.0443 µM; in the experiment with HOP-62 NSCLC, 0.0174 µM; with HCC-2998 colon, 0.0558 µM; in the experiment on CAKI-1 renal it was 0.0223 µM. In addition, the TGI in the experiment on PC-3 prostate stood at 0.0554 µM; in the experiment with MDA-MB-231 breast it was 4.53 µM; in the experiment with HOP-62 NSCLC, 17.2 µM; with HCT-116 colon it was 4.17 µM; in the experiment on HCC-2998 colon, 0.159 µM; in the experiment with CAKI-1 renal, 58.4 µM.
Consider `CCCCN(CCCC)CC(C(C)=O)C(c1ccccc1)c1c(O)c2ccccc2oc1=O` (stereo not given), for which the TGI in the experiment on HOP-92 NSCLC, in the experiment on MOLT-4 leukemia, with RXF 393 renal, in the experiment with HOP-62 NSCLC, in the experiment with HCT-116 colon and with HCC-2998 colon was more than 100 µM in each case. Further, the TGI in the experiment with CAKI-1 renal and in the experiment with HL-60(TB) leukemia was more than 100 µM throughout.
For the molecule `COCCNc1cncc(C(N)=O)c1`, the TGI with MOLT-4 leukemia, in the experiment with PC-3 prostate, with MDA-MB-231 breast, with HOP-62 NSCLC, with HCT-116 colon and in the experiment on HCC-2998 colon was more than 100 µM each time. Also, the TGI in the experiment on CAKI-1 renal and in the experiment on HL-60(TB) leukemia was more than 100 µM in each case.
For `CC(=O)NN1C(=O)C(Cc2ccccc2)c2ccccc21` (stereo not given), the TGI with HOP-92 NSCLC, in the experiment on MOLT-4 leukemia, with HOP-62 NSCLC, with HCT-116 colon, in the experiment with HCC-2998 colon and with CAKI-1 renal was more than 100 µM in each case.
Take `COc1ccc(CC2C(=O)OC(C)C(NC(=O)c3c4nc5c(C(=O)NC6C(=O)NC(C(C)C)C(=O)N7CCCC7C(=O)N(C)CC(=O)N(C)C(Cc7ccc(OC)cc7)C(=O)OC6C)ccc(C)c5oc-4c(C)c(=O)c3N)C(=O)NC(C(C)C)C(=O)N3CCCC3C(=O)N(C)CC(=O)N2C)cc1` (stereo not given) (I: TVP[Sar][NMeY](Me) / II: TVP[Sar][NMeY](Me); ester I:1-I:C, II:1-II:C; linker I:N-II:N via Actinocin(1to9); configuration not given here): the GI50 in the experiment with HOP-92 NSCLC is < 0.01 µM and 0.035 µM; in the experiment with MOLT-4 leukemia, 0.00152 µM; in the experiment on RXF 393 renal, < 0.01 µM and 0.0306 µM; in the experiment with HCT-116 colon, < 0.01 µM and 0.00298 µM; in the experiment with CAKI-1 renal, < 0.01 µM and 0.0363 µM; with HL-60(TB) leukemia it was 0.00154 µM. Besides, the TGI in the experiment with HCT-116 colon is 1.12 µM and > 1 µM; in the experiment on CAKI-1 renal it was 0.734 µM; in the experiment with HL-60(TB) leukemia, 0.0515 µM.
